Where a name gives a salt, the structure may show the parent alone.
How the values were obtained:
[1] = system: larvae of the mustard beetle (Phaedon cochleariae); test: Phaedon cochleariae spray test (PHAECO); type: in vivo; details: Chinese cabbage leaf discs, after 7 days
Protocol: Phaedon cochleariae—Spray Test (PHAECO)
(§1) Solvents: 78.0 parts by weight of acetone
(§2) • 1.5 parts by weight of dimethylformamide Emulsifier: alkylaryl polyglycol ether
(§3) To produce a suitable preparation of active compound, 1 part by weight of active compound is dissolved using the stated parts by weight of solvent and made up with water comprising an emulsifier concentration of 1000 ppm until the desired concentration is reached. To produce further test concentrations, the preparation is diluted with emulsifier-containing water.
After 7 days, the efficacy in % is determined. 100% means that all of the beetle larvae have been killed; 0% means that none of the beetle larvae have been killed.

[2] = system: caterpillars of the armyworm (Spodoptera frugiperda); test: Spodoptera frugiperda spray test (SPODFR); type: in vivo; details: maize leaf discs, after 7 days
Protocol: Spodoptera frugiperda—Spray Test (SPODFR)
as §1, §2, §3
Leaf discs of maize (Zea mays) are sprayed with an active compound preparation of the desired concentration and, after drying, populated with caterpillars of the armyworm (Spodoptera frugiperda).
After 7 days, the efficacy in % is determined. 100% means that all of the caterpillars have been killed; 0% means that none of the caterpillars have been killed.

[3] = system: engorged adult female cattle ticks (Boophilus microplus); test: Boophilus microplus injection test (BOOPMI Inj); type: in vivo; details: application rate 20 μg/animal; injection into abdomen; assessed after 7 days
Protocol: Boophilus microplus Injection Test (BOOPMI Inj)
Solvent: dimethyl sulphoxide
To produce a suitable preparation of active compound, 10 mg of active compound are mixed with 0.5 ml of solvent, and the concentrate is diluted with solvent to the desired concentration.
1 μl of the active compound solution is injected into the abdomen of 5 engorged adult female cattle ticks (Boophilus microplus). The animals are transferred into dishes and kept in a climate-controlled room.
The activity is assessed after 7 days by laying of fertile eggs. Eggs whose fertility is not visible from the outside are stored in a climate-controlled cabinet until the larvae hatch after about 42 days. An efficacy of 100% means that none of the ticks has laid any fertile eggs; 0% means that all eggs are fertile.

[4] = system: adult cat fleas (Ctenocephalides felis); test: Ctenocephalides felis oral test (CTECFE); type: in vivo; details: application rate 100 ppm in citrated cattle blood; after 2 days
Protocol: Ctenocephalides felis-Oral Test ([…]) Solvent: dimethyl sulphoxide To produce a suitable preparation of active compound, 10 mg of active compound are mixed with 0.5 ml of dimethyl sulphoxide. Dilution with citrated cattle blood gives the desired concentration. About 20 unfed adult cat fleas (Ctenocephalides felis) are placed into a chamber which is closed at the top and bottom with gauze. A metal cylinder whose bottom end is closed with a parafilm is placed onto the chamber. The cylinder contains the blood/active ingredient preparation, which can be imbibed by the fleas through the parafilm membrane. After 2 days, the kill in % is determined. 100% means that all of the fleas have been killed; 0% means that none of the fleas have been killed.

[5] = system: greenhouse red spider mite (Tetranychus urticae), OP-resistant; test: Tetranychus urticae spray test, OP-resistant (TETRUR); type: in vivo; details: bean leaf discs, after 6 days
Protocol: Tetranychus urticae—Spray Test, OP-Resistant (TETRUR)
as §1, §2, §3
Discs of bean leaves (Phaseolus vulgaris) which are infested by all stages of the greenhouse red spider mite (Tetranychus urticae) are sprayed with an active compound preparation of the desired concentration.
After 6 days, the efficacy in % is determined. 100% means that all of the spider mites have been killed; 0% means that none of the spider mites have been killed.

[6] = system: L1 larvae of the Australian sheep blowfly (Lucilia cuprina); test: Lucilia cuprina test (LUCICU); type: in vivo; details: application rate 100 ppm; minced horsemeat; after 2 days
Protocol: Lucilia cuprina Test (LUCICU) Solvent: dimethyl sulphoxide To produce a suitable preparation of active compound, 10 mg of active compound are mixed with 0.5 ml of dimethyl sulphoxide, and the concentrate is diluted with water to the desired concentration. About 20 L1 larvae of the Australian sheep blowfly (Lucilia cuprina) are transferred into a test vessel containing minced horsemeat and the active compound preparation of the desired concentration. After 2 days, the kill in % is determined. 100% means that all of the larvae have been killed; 0% means that none of the larvae have been killed.

[7] = log P determination by HPLC on reversed-phase column (C18), EEC Directive 79/831 Annex V.A8; type: physicochemical; details: method a): Agilent 1100 LC, Zorbax Eclipse Plus C18, acetonitrile/water with formic acid, gradient 10-95% in 4.25 min, 55° C.
Protocol: Agilent 1100 LC system; 50*4.6 Zorbax Eclipse Plus C18 1.8 micron; mobile phase A: acetonitrile (0.1% formic acid); mobile phase B: water (0.09% formic acid); linear gradient from 10% acetonitrile to 95% acetonitrile in 4.25 min, then 95% acetonitrile for a further 1.25 min; oven temperature 55° C.; flow rate: 2.0 ml/min. Mass detection is carried out via an Agilend MSD system.
^a)Unless indicated otherwise, the following method was used to determine the log P values and masses: The determination of the given log P values was carried out in accordance with EEC Directive 79/831 Annex V.A8 by HPLC (High Performance Liquid Chromatography) on a reversed-phase column (C18). Agilent 1100 LC system; 50*4.6 Zorbax Eclipse Plus C18 1.8 micron; mobile phase A: acetonitrile (0.1% formic acid); mobile phase B: water (0.09% formic acid); linear gradient from 10% acetonitrile to 95% acetonitrile in 4.25 min, then 95% acetonitrile for a further 1.25 min; oven temperature 55° C.; flow rate: 2.0 ml/min. Mass detection is carried out via an Agilend MSD system. ^b)Note for the alternative method for determining log P values and masses: The stated log P values were determined in accordance with EEC Directive 79/831 Annex V.A8 by HPLC (High Performance Liquid Chromatography) using a reversed-phase column (C18). Waters ACQUITY UPLC-MS system; 2.1*50 mm Zorbax Eclipse Plus C18 1.8 μm 600 bar; injection volume: 0.5 ul about 1000 ppm; mobile phase A: acetonitrile (0.1% formic acid); mobile phase B: water (0.085% formic acid); linear gradient from 10% acetonitrile to 95% acetonitrile in 1.5 min, then 95% acetonitrile for a further 0.5 min; oven temperature 60° C.; flow rate: 1.0 ml/min. Mass detection is carried out via a Waters SQD system.

[8] = system: adult houseflies (Musca domestica); test: Musca domestica test (MUSCDO); type: in vivo; details: application rate 100 ppm; after 2 days
Protocol: Musca domestica Test (MUSCDO) Solvents: dimethyl sulphoxide To produce a suitable preparation of active compound, 10 mg of active compound are mixed with 0.5 ml of dimethyl sulphoxide, and the concentrate is diluted with water to the desired concentration. Vessels containing a sponge treated with sugar solution and the active compound preparation of the desired concentration are populated with 10 adult houseflies (Musca domestica). After 2 days, the kill in % is determined. 100% means that all of the flies have been killed; 0% means that none of the flies have been killed.

| SMILES | efficacy in % ([1]; application rate 100 g/ha) | efficacy (no laying of fertile eggs) [3] | kill in % [4] | efficacy in % ([5]; application rate 100 g/ha) | kill in % [6] | further results |
| --- | --- | --- | --- | --- | --- | --- |
| Cn1nc(C(F)(F)C(F)(F)F)c(C(F)(F)F)c1-n1ccc(-c2ccc(F)c(CNC(=O)C3CC3)c2)n1 [Id-9] | 100% | 90% |  |  |  | efficacy in % ([2]; application rate 100 g/ha): 83% |
| Cn1nc(C(F)(F)C(F)(F)F)c(C(F)(F)F)c1-n1cc(-c2ccc(F)c(CNC(=O)c3cncnc3)c2)cn1 [Ic-27] | 83% | 100% | 90% | 100% |  |  |
| Cn1nc(C(F)(F)C(F)(F)F)c(C(F)(F)F)c1-n1cc(-c2ccc(F)c(CNC(=O)C3CCOC3)c2)cn1 (racemic) [Ic-9] | 100% | 100% | 100% | 90% | 100% |  |
| Cn1nc(C(F)(F)C(F)(F)F)c(C(F)(F)F)c1-n1cc(-c2cccc(CN)c2)cn1 [1-{3-[2′-methyl-5′-(pentafluoroethyl)-4′-(trifluoromethyl)-2′H-1,3′-bipyrazol-4-yl]phenyl}methanamine hydrochloride (1:1)] |  |  |  |  |  | chromatographic logP [7]: 1.93 |
| CC(C)C(=O)NCc1cc(-c2cnn(-c3c(C(F)(F)F)c(C(F)(F)C(F)(F)F)nn3C)c2)ccc1F [Ic-28] | 100% | 100% | 90% |  | 100% | efficacy in % ([2]; application rate 100 g/ha): 100% |
| Cn1nc(C(F)(F)C(F)(F)F)c(C(F)(F)F)c1-n1cc(-c2cncc(CNC(=O)C3CC3)c2)cn1 [Ic-29] | 100% |  |  | 90% |  |  |
| CCC(=O)NCc1cc(-c2ccn(-c3c(C(F)(F)F)c(C(F)(F)C(F)(F)F)nn3C)n2)ccc1F [Id-2] | 100% | 90% | 80% |  | 90% | efficacy in % ([2]; application rate 100 g/ha): 100% |
| Cn1nc(C(F)(F)C(F)(F)F)c(C(F)(F)F)c1-n1cnc(-c2cccc(CN)c2)c1 [1-(3-{1-[1-methyl-3-(pentafluoroethyl)-4-(trifluoromethyl)-1H-pyrazol-5-yl]-1H-imidazol-4-yl}phenyl)methanamine hydrochloride] |  |  |  |  |  | chromatographic logP [7]: 1.83 |
| CC(=O)NCc1cccc(-c2cn(-c3c(C(F)(F)F)c(C(F)(F)C(F)(F)F)nn3C)nn2)c1 [Ig-6] | 100% | 100% | 100% |  | 100% |  |
| CC(NC(=O)C1CC1)c1cccc(-c2cnn(-c3c(C(F)(F)F)c(C(F)(F)C(F)(F)F)nn3C)c2)c1 (racemic) [Ic-21] | 100% |  |  | 90% |  |  |
| CC(=O)NC(C)c1cccc(-c2cnn(-c3c(C(F)(F)F)c(C(F)(F)C(F)(F)F)nn3C)c2)c1 (stereo not drawn) [Ic-31] | 100% |  |  |  |  |  |
| CCC(=O)NCc1cccc(-c2ccn(-c3c(C(F)(F)F)c(C(F)(F)C(F)(F)F)nn3C)n2)c1 [Id-5] | 100% |  |  |  |  |  |
| CCC(=O)NCc1cccc(-c2cn(-c3c(C(F)(F)F)c(C(F)(F)C(F)(F)F)nn3C)nn2)c1 [Ig-4] | 100% | 100% | 100% | 90% | 100% | kill in % [8]: 100% |
| CC(=O)NCc1cc(-c2ccn(-c3c(C(F)(F)F)c(C(F)(F)C(F)(F)F)nn3C)n2)ccc1F [Id-4] | 100% |  |  |  |  |  |
| Cn1nc(C(F)(F)C(F)(F)F)c(C(F)(F)F)c1-n1cc(-c2ccc(F)c(CNC(=O)C(F)(F)F)c2)cn1 [Ic-6] | 100% | 100% | 100% | 100% | 100% | kill in % [8]: 80% |
| Cn1nc(C(F)(F)C(F)(F)F)c(C(F)(F)F)c1-n1cc(-c2cccc(CNC(=O)C3CC3)c2)nn1 [Ig-2] | 100% | 100% | 100% |  | 100% | kill in % [8]: 100% |
| Cn1nc(C(F)(F)C(F)(F)F)c(C(F)(F)F)c1-n1cc(-c2ccc(F)c(CNC=O)c2)cn1 [Ic-19] |  | 100% | 100% |  | 100% | efficacy in % ([1]; application rate 500 g/ha): 100%; efficacy in % ([2]; application rate 500 g/ha): 83%; efficacy in % ([5]; application rate 500 g/ha): 90% |
| Cn1nc(C(F)(F)C(F)(F)F)c(C(F)(F)F)c1-n1cc(-c2ccc(F)c(CNC(=O)c3cccnc3)c2)cn1 [Ic-15] |  | 90% |  | 100% |  |  |
| Cn1nc(C(F)(F)C(F)(F)F)c(C(F)(F)F)c1-n1cc(-c2ccc(F)c(CNC(=O)c3ccccc3)c2)cn1 [Ic-14] | 100% | 100% |  | 90% |  |  |
| CSC(C)C(=O)NCc1cc(-c2cnn(-c3c(C(F)(F)F)c(C(F)(F)C(F)(F)F)nn3C)c2)ccc1F (stereo not drawn) [Ic-30] |  | 100% | 95% | 100% | 100% |  |
| Cn1nc(C(F)(F)C(F)(F)F)c(C(F)(F)F)c1-n1cnc(-c2ccc(F)c(CNC(=O)C3CC3)c2)c1 [Ib-7] | 100% |  |  |  |  |  |
| CCC(=O)NCc1cc(-c2cnn(-c3c(C(F)(F)F)c(C(F)(F)C(F)(F)F)nn3C)n2)ccc1F [If-1] | 100% | 100% | 100% |  | 100% | kill in % [8]: 80%; efficacy in % ([2]; application rate 100 g/ha): 100% |
| Cn1nc(C(F)(F)C(F)(F)F)c(C(F)(F)F)c1-n1cc(-c2ccc(F)c(CNC(=O)CC(F)(F)F)c2)cn1 [Ic-5] | 100% | 100% | 100% | 100% | 100% | kill in % [8]: 100%; efficacy in % ([2]; application rate 100 g/ha): 100% |
